# Results published in patent US12618845B2, “Methods and compositions for protein sequencing” (Quantum-Si Incorporated, priority 2018, dated 2026).
# Entries after “also recorded” stand apart in the source; their conditions may differ. Square brackets hold non-standard residues; d marks the D form. Ends that are not written are not given here. Lys(N3) = [N-]=[N+]=NCCCC[C@H](N)C(=O)O
# Test system: proline iminopeptidase (PIP)
# Assay: Terminal amino acid cleavage of peptide-linker conjugates monitored by LCMS, PIP
# Type: biochemical
# Details: incubated with PIP
# Experimental: (§1) The peptide-linker conjugates were evaluated for amino acid cleavage at peptide N-termini by N-terminal aminopeptidases (Table 6, below).
# (§2) The peptide-linker conjugates shown in Table 6 were incubated with either proline iminopeptidase (“PIP”) or rat aminopeptidase N (“Rat APN”), and peptide cleavage was monitored by LCMS. All other cleavage reactions were measured in a similar manner.
row,Substance,Cleaved by PIP
1,DPDPDP{LYS(N3)} [Entry 9],Yes
2,FPFPFP{LYS(N3)} [Entry 8],Yes
3,KPKPKP{LYS(N3)} [Entry 10],No
4,KPKPKP{LYS(N3)} [Entry 11],Yes

# Molecular target: T1, rat aminopeptidase N (Rat APN) (Rattus norvegicus, UniProt P15684)
# T1 sequence (P15684 1-965): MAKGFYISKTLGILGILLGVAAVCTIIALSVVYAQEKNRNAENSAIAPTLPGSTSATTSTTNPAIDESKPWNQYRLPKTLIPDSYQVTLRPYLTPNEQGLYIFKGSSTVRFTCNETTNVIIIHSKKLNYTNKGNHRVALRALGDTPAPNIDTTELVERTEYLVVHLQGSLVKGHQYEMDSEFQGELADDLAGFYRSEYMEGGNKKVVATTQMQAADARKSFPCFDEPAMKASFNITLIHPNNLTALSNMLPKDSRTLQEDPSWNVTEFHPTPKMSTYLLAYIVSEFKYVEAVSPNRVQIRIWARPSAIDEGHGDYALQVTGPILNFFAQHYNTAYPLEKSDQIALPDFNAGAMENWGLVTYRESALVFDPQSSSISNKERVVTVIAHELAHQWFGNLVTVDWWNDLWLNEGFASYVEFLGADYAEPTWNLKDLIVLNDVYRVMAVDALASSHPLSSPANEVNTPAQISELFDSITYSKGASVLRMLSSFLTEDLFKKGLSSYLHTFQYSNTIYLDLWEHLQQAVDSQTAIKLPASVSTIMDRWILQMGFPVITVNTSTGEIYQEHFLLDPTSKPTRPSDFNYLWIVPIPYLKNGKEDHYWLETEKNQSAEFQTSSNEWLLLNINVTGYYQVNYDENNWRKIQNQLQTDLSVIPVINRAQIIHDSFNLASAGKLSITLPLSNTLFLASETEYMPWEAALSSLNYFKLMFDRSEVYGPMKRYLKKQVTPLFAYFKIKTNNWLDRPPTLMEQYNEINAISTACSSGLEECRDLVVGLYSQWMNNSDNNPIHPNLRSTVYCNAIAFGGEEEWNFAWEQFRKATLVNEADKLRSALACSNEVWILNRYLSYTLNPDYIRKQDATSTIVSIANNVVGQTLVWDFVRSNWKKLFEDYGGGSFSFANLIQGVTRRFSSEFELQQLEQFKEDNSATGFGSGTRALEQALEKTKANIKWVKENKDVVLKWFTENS
# Assay: Terminal amino acid cleavage of peptide-linker conjugates monitored by LCMS, Rat APN
# Type: biochemical
# Details: incubated with Rat APN
# Experimental: as §1, §2
row,Substance,Cleaved by Rat APN
1,AAMAAM{LYS(N3)} [Entry 7],Yes
2,DDMDDM{LYS(N3)} [Entry 5],Yes
3,"FFMFFM{LYS(N3)} (FFMFFM[Lys(N3)]; also: oligo linker) [Entry 6, 73, aromatic class, oligo linker]",Yes
4,"KKMKKM{LYS(N3)} [2] (KKMKKM[Lys(N3)]; also: oligo linker) [Entry 2, 71, positive class, oligo linker]",No
5,"KKMKKM{LYS(N3)} [3] (KKMKKM[Lys(N3)]; also: oligo-PEG linker) [Entry 3, 71, positive class, oligo-PEG linker]",No
6,"KKMKKM{LYS(N3)} [4] (KKMKKM[Lys(N3)]; also: PEG4 linker) [Entry 4, 71, positive class, PEG4 linker]",Yes

# Test system: amino acid at a terminal position of a polypeptide
# Assay: not given
# Details: amino acid identity at a terminal position of a polypeptide; phospho-Y also at an internal position; cited from earlier work
row,Substance,Binding Pref.
1,"H. sapiens Src tyrosine kinase SH2 domain: amino acid recognition protein, SEQ ID NO: 24",phospho-Y
2,"H. sapiens p62 fragment 1-180: amino acid recognition protein, SEQ ID NO: 27","K, R, H,; also recorded: W, F, Y"
3,"H. sapiens p62 fragment 1-310: amino acid recognition protein, SEQ ID NO: 26","K, R, H,; also recorded: W, F, Y"
4,"H. sapiens p62 fragment 126-180: amino acid recognition protein, SEQ ID NO: 28","K, R, H,; also recorded: W, F, Y"
5,"Rattus norvegicus p62 protein: amino acid recognition protein, SEQ ID NO: 30","K, R, H,; also recorded: W, F, Y"
